“Also recorded” adds a separate entry of the source.
Tests used:
[1] = tested on: db/db mice; assay: Chronic treatment of db/db mice; assay type: in vivo; conditions: for ITT blood glucose: 2 weeks; for fasting blood glucose: after the first week
Experimental: Daily food intake (g), Serum leptin (ng/ml), lean mass (g), fat mass (g) and fat percentage (%) were measured after 3 weeks of treatment measured by DEXA scan. GTT was determined after 1 week of treatment. AOC analysis for GTT was performed and Blood glucose (mg/dl) levels were measured after 1 week of treatment. Blood glucose (mg/dl) levels and Serum insulin (ng/ml) levels were measured after 3 weeks of treatment. ITT was assessed after 2 weeks of treatment. H&E staining of the liver sections was conducted after 3 weeks of treatment.

[2] = tested on: DIO mice; assay: Single dose food intake in 24 h fasted DIO mice; assay type: in vivo; conditions: ACY775 10 mg/kg, ACY738 50 mg/kg i.p.
Experimental: Food intake was analyzed hourly until 3:00 am. […] DEXA scans were performed in two different cohorts.

[3] = tested on: DIO mice; assay: Conditioned place preference (CPP) assay in DIO mice; assay type: in vivo; conditions: for time and frequency in the food zone / time and frequency in the food-containing white side chambers: fed and fasting conditions; for cumulative duration in the dark side chambers: fed or fasting conditions
Experimental: DIO mice were treated with vehicle or ACY775 (10 mg/kg, i.p., once a day) for 3 days. On the fourth day, 1 h after the beginning of the light cycle, the mice were administered vehicle or ACY775 (10 mg/kg, i.p.) and the conditioned place preference (CPP) assay under the ad libitum feeding condition was utilized. The CPP assay was performed 6 h later under the ad libitum feeding condition (n=10 mice for both the Vehicle- and ACY775-treated groups). CPP assay under a 20-h fasting condition was also performed. DIO mice were treated with vehicle or ACY775 (10 mg/kg, i.p.) once a day and fasted for 15 h after the third injection. On the fourth day, 1 h after the beginning of the light cycle, the mice were administered vehicle or ACY775 (10 mg/kg body weight, i.p.) and the CPP assay was performed 5 h after this injection under the fasting condition (n=10 mice for both the Vehicle- and ACY775-treated groups).
Measurements were made of the total distance that the mice traveled during the CPP test, the average velocity of movement during the assay, the total time the mice spent in the dark chamber during the test; the frequency with which the mice traveled to the dark chamber during the test; the total time the mice spent in the food-paired white chamber; the frequency with which the mice traveled to the food paired white chamber; the total time the mice spent in the food-containing zone within the food-paired side chamber; and the frequency with which the mice traveled to the food-containing zone within the food-paired side chamber during the test.

[4] = tested on: p-STAT3^Tyr705; assay: Leptin-stimulated hypothalamic STAT3 Tyr705 phosphorylation in DIO mice; assay type: in vivo; conditions: 45 minutes after leptin 1 mg/kg i.p.
Experimental: DIO mice were pretreated with ACY775 (10 mg/kg/day, i.p.) or vehicle for 3 days, which was followed by a last injection of ACY775 (or vehicle) in the morning of fourth day. 6 hours later mice were injected with saline or leptin (1 mg/kg, i.p.) and hypothalamus were extracted after 45 minutes following the leptin injection. Representative immunoblots for STAT3^Tyr705 phosphorylation and total STAT3 from the hypothalamus. Quantification of the ratio of p-STAT3^Tyr705 to total-STAT3 signal in the immunoblots. The results were reproduced in three independent experiments. The results were analyzed hourly.
DIO mice were pretreated with ACY775 (10 mg/kg/day, i.p.) or vehicle for 3 days, which was followed by a last injection of ACY775 (or vehicle) in the morning of fourth day. 6 hours later mice were injected with saline or leptin (1 mg/kg, i.p.) and the hypothalamus were extracted after 45 minutes following the leptin injection.
6 hours later mice were injected with saline or leptin (1 mg/kg, i.p.) and hypothalamus were extracted after 45 minutes following the leptin injection. Immunoblots for STAT3^Tyr705 phosphorylation and total STAT3 from the hypothalamus were made to quantify the ratio of p-STAT3^Tyr705 to total-STAT3 signal in the immunoblots. The results were reproduced in two independent experiments.
DIO mice were pretreated with ricolinostat (50 mg/kg/day, i.p.) or vehicle 3 days, which was followed by a last injection of ricolinostat (or vehicle) in the morning of fourth day. 6 hours later mice were injected with saline or leptin (1 mg/kg, i.p.) and the hypothalamus were extracted after 45 minutes following the leptin injection. Immunoblots were performed for STAT3^Tyr705 phosphorylation and total STAT3 from the hypothalamus. The ratio of p-STAT3^Tyr705 to total STAT3 signal in the immunoblots was quantified.

[5] = tested on: ACY775-responsive DMH neurons; assay: Caspase3 ablation of ACY775-responsive DMH neurons in TRAP2 DIO mice; assay type: in vivo
Experimental: Whether the activity of ACY775-responsive DMH neurons could be involved in the food intake and bodyweight reducing activity of HDAC6 inhibitors was investigated as a possible second order of neurons to AgRP^ARC neurons. These neurons were ablated to investigate the necessity of these neurons in mediating the ACY775's anti-obesity effects. AAV-flex-taCasp3-TEVp was injected into the DMH of TRAP2 DIO mice, and then the mice were injected with a single dose of ACY775 and 4-OHT to ablate these neurons through caspase3 protein activation. To make sure that this experimental system worked, the existence of ACY775-responsive DMH neurons was verified by c-fos staining after injection of a second dose of ACY775. This experimental method predicts that caspase 3, when activated by administration of the first dose of ACY775 in conjugation with 4-OHT injection, will lead to ablation of ACY775-responsive DMH neurons, and diminish the c-fos signals that would otherwise be created by the second dose of ACY775.

[6] = biological target: HDAC6 (Mus musculus (Mouse), UniProt Q9Z2V5); assay: LepRb acetyl-lysine immunoblotting in transfected HEK293 cells; assay type: cell-based; conditions: 200 nM, 0.5-3 h
Chain of HDAC6 (Q9Z2V5 whole entry): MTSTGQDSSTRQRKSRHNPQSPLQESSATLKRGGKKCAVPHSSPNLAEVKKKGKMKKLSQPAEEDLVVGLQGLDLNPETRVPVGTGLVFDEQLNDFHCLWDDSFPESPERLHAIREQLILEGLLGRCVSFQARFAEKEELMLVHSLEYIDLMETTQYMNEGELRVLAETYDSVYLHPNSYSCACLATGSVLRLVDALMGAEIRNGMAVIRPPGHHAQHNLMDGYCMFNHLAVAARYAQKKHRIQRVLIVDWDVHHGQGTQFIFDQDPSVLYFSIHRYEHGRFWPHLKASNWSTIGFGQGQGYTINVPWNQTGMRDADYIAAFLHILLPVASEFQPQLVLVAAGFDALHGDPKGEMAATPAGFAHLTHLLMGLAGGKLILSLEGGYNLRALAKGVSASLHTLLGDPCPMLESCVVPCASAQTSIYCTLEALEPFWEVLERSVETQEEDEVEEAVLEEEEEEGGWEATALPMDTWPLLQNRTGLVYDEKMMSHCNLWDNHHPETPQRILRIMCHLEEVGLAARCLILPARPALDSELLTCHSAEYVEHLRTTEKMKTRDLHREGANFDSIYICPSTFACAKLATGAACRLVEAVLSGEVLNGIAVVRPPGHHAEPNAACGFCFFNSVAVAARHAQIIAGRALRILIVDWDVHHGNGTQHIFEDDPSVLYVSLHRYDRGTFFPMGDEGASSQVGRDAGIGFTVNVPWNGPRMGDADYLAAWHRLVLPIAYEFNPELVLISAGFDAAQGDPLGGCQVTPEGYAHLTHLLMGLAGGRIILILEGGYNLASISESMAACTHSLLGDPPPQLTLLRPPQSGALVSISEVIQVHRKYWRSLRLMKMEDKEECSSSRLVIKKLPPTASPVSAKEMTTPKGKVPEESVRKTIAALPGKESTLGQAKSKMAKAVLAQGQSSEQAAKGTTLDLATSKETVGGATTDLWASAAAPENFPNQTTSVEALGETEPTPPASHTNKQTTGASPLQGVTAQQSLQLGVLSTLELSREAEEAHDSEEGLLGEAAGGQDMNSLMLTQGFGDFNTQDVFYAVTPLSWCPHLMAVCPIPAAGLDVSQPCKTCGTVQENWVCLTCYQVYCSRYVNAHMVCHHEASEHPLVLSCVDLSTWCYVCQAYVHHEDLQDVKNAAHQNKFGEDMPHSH
Experimental: HEK293 cells were transfected with the plasmids and were treated with vehicle or ACY775. Subsequently Flag immunoprecipitation was used to pull down LepRb followed by Ac^Lys or Flag immunoblotting.
To test whether HDAC6 can deacetylate LepRb, HEK293 cells were transfected with plasmids (LepRb-Flag, HA-p300 and HDAC6-myc). LepRb was immunoprecipitated by Flag antibodies, which was followed by acetyl-lysine (Ac^Lys) or immunoblottings.
Next, cells were transfected with plasmids (LepRb-Flag, HA-p300 and HDAC6-myc) and subsequently treated with ACY775 ([…]) for 0.5, 1, 2 and 3 h. […] Next, to investigate whether HDAC6 has any effect on LepRb tyrosine phosphorylation, which is indicative of LepRb activation, HEK 293 cells were transfected with LepRb and HDAC6-Myc plasmids in the indicated order and the cells stimulated with leptin (200 ng/ml) for 10 and 60 minutes. The Flag immunoprecipitates were exposed to phospho-tyrosine (p^Tyr) immunoblotting.

Row | SMILES | food intake [1] | ITT blood glucose [1] | fasting blood glucose [1] | food intake after a single dose [2] | time and frequency in the food zone [3] | time and frequency in the food-containing white side chambers [3] | cumulative duration in the dark side chambers [3] | leptin-stimulated hypothalamic p-STAT3^Tyr705 [4] | body weight and food consumption, chronic ([5]; 10 mg/kg/day i.p.) | blood glucose levels ([5]; caspase3^on-DMH versus caspase3^off-DMH) | food intake in fasted mice ([5]; caspase3^on-DMH versus caspase3^off-DMH, 10 mg/kg i.p.) | deacetylation of LepRb [6] | blood glucose lowering at end of treatment ([1]; 3 weeks)
1 | O=C(NO)c1cnc(NC2(c3ccccc3)CC2)nc1 [ACY738] | not affected | no significant difference in blood glucose levels | not affected | significantly reduced/blocked the food intake | spent significantly shorter time and displayed lower frequency of appearance | spent similar time and frequency of appearance | no significant differences in cumulative duration | substantially increased | – | – | – | – | –
2 | O=C(NO)c1cnc(NC2(c3cccc(F)c3)CCCCC2)nc1 [ACY775, 2-[[1-(3-fluorophenyl)cyclohexyl]amino]-N-hydroxy-5-pyrimidinecarboxamide] | transitionally reduced | no significant difference in blood glucose levels | lower in ACY775-treated mice than vehicle-treated mice | significantly reduced/blocked the food intake | spent significantly shorter time and displayed lower frequency of appearance | spent significantly shorter time and had lower frequency of appearance | no significant differences in cumulative duration | increased significantly | neither reduced the body weight nor the food consumption in caspase3^on-DMH mice; also recorded: did reduce the food intake and bodyweight in caspase3^off-DMH mice | significantly higher in caspase3^on-DMH mice | significantly higher than caspase3^off-DMH mice | can completely block deactylation of LepRb | completely diminished
